Reference: patent US11618743B2, “Herbicidal compounds” (SYNGENTA PARTICIPATIONS AG, priority 2017, dated 2023)

Key:
Experiment in all cases: Post-emergence efficacy, Method A
Format in all cases: in vivo
[1] = system: Euphorbia heterophylla (EPHHL); details: Application rate 500 g/Ha, evaluated after 13 days; for Control of weed species EPHHL after post-emergence application (100=total damage to plant; 0=no damage to plant): Method A; for Control of weed species after post-emergence application, EPHHL: 100=total damage to plant, 0=no damage
Protocol: (§1) Seeds of a variety of test species were sown in standard soil in pots. After cultivation for 14 days (post-emergence) under controlled conditions in a glasshouse (at 24/16° C., day/night; 14 hours light; 65% humidity), the plants were sprayed with an aqueous spray solution derived from the dissolution of the technical active ingredient formula (I) in a small amount of acetone and a special solvent and emulsifier mixture referred to as IF50 (11.12% Emulsogen EL360 TM+44.44% N-methylpyrrolidone+44.44% Dowanol DPM glycol ether), to create a 50 g/l solution which was then diluted to required concentration using 0.25% or 1% Empicol ESC70 (Sodium lauryl ether sulphate)+1% ammonium sulphate as diluent.
(§2) The test plants were then grown in a glasshouse under controlled conditions (at 24/16° C., day/night; 14 hours light; 65% humidity) and watered twice daily. After 13 days the test was evaluated (100=total damage to plant; 0=no damage to plant).
(§3) Ipomoea hederacea (IPOHE), Euphorbia heterophylla (EPHHL), Chenopodium album (CHEAL), Amaranthus palmeri (AMAPA), Lolium perenne (LOLPE), Digitaria sanguinalis (DIGSA), Eleusine indica (ELEIN), Echinochloa crus-galli (ECHCG), Setaria faberi (SETFA)

[2] = system: Amaranthus palmeri (AMAPA); details: Application rate 500 g/Ha, evaluated after 13 days; for Control of weed species AMAPA after post-emergence application (100=total damage to plant; 0=no damage to plant): Method A; for Control of weed species after post-emergence application, AMAPA: 100=total damage to plant, 0=no damage
Protocol: as §1, §2, §3

Eleusine indica (ELEIN) = details: Application rate 500 g/Ha, evaluated after 13 days; for Control of weed species ELEIN after post-emergence application (100=total damage to plant; 0=no damage to plant): Method A; for Control of weed species after post-emergence application, ELEIN: 100=total damage to plant, 0=no damage
Protocol: as §1, §2, §3

[3] = system: Chenopodium album (CHEAL); details: Application rate 500 g/Ha, evaluated after 13 days; for Control of weed species CHEAL after post-emergence application (100=total damage to plant; 0=no damage to plant): Method A; for Control of weed species after post-emergence application, CHEAL: 100=total damage to plant, 0=no damage
Protocol: as §1, §2, §3

Setaria faberi (SETFA) = details: Application rate 500 g/Ha, evaluated after 13 days; for Control of weed species SETFA after post-emergence application (100=total damage to plant; 0=no damage to plant): Method A; for Control of weed species after post-emergence application, SETFA: 100=total damage to plant, 0=no damage
Protocol: as §1, §2, §3

[4] = system: Echinochloa crus-galli (ECHCG); details: Application rate 500 g/Ha, evaluated after 13 days; for Control of weed species ECHCG after post-emergence application (100=total damage to plant; 0=no damage to plant): Method A; for Control of weed species after post-emergence application, ECHCG: 100=total damage to plant, 0=no damage
Protocol: as §1, §2, §3

[5] = system: Digitaria sanguinalis (DIGSA); details: Application rate 500 g/Ha, evaluated after 13 days; for Control of weed species DIGSA after post-emergence application (100=total damage to plant; 0=no damage to plant): Method A; for Control of weed species after post-emergence application, DIGSA: 100=total damage to plant, 0=no damage
Protocol: as §1, §2, §3

Compound | Control of weed species EPHHL after post-emergence application (100=total damage to plant; 0=no damage to plant) [1] | Control of weed species AMAPA after post-emergence application (100=total damage to plant; 0=no damage to plant) [2] | Control of weed species ELEIN after post-emergence application (100=total damage to plant; 0=no damage to plant) (Eleusine indica (ELEIN)) | Control of weed species CHEAL after post-emergence application (100=total damage to plant; 0=no damage to plant) [3] | Control of weed species SETFA after post-emergence application (100=total damage to plant; 0=no damage to plant) (Setaria faberi (SETFA)) | Control of weed species ECHCG after post-emergence application (100=total damage to plant; 0=no damage to plant) [4] | Control of weed species DIGSA after post-emergence application (100=total damage to plant; 0=no damage to plant) [5] | Control of weed species after post-emergence application, EPHHL [1] | Control of weed species after post-emergence application, AMAPA [2] | Control of weed species after post-emergence application, ELEIN (Eleusine indica (ELEIN)) | Control of weed species after post-emergence application, CHEAL [3] | Control of weed species after post-emergence application, SETFA (Setaria faberi (SETFA)) | Control of weed species after post-emergence application, ECHCG [4] | Control of weed species after post-emergence application, DIGSA [5]
O=C([O-])C(F)(F)F.O=S(=O)(O)CCC[n+]1ccc(-c2cnccn2)cn1 [Compound A10] | 100 | 100 | 50 | 100 | 60 | 30 | 60 | – | – | – | – | – | – | –
O=C(O)CC[n+]1ccc(-c2ccncc2F)cn1.O=C([O-])C(F)(F)F [Compound A157] | – | – | – | – | – | – | – | 80 | 100 | 90 | 100 | 80 | 80 | 70
O=C(O)CC[n+]1ccc(-c2ncccc2C(F)(F)F)cn1.O=C([O-])C(F)(F)F [Compound A128] | 0 | 30 | 50 | 10 | 30 | 30 | 30 | – | – | – | – | – | – | –
O=C(O)CC[n+]1ccc(-c2ccnc(C(F)(F)F)n2)cn1.O=C([O-])C(F)(F)F [Compound A118] | 90 | 80 | 70 | 80 | 70 | 40 | 90 | – | – | – | – | – | – | –
Cc1n[n+](CCC(=O)O)ccc1-c1ncccn1.O=C([O-])C(F)(F)F [Compound A132] | 30 | 90 | 90 | 30 | 100 | 70 | 90 | – | – | – | – | – | – | –
O=C(O)CC[n+]1ccc(-c2cc(C(F)(F)F)ncn2)cn1.O=C([O-])C(F)(F)F [Compound A119] | 70 | 100 | 30 | 100 | 40 | 30 | 40 | – | – | – | – | – | – | –
CC(C(=O)OC(C)(C)C)[n+]1ccc(-c2ncccn2)cn1.O=C([O-])C(F)(F)F (stereo not drawn) [Compound A193] | – | – | – | – | – | – | – | 60 | 70 | 30 | 60 | 10 | 10 | 30
O=C(O)CC[n+]1ccc(-c2ccnc(C(F)(F)F)c2)cn1.O=C([O-])C(F)(F)F [Compound A166] | – | – | – | – | – | – | – | 60 | 30 | 60 | 50 | 40 | 50 | 70
Cc1c[n+](CCC(=O)O)ncc1-c1ncccn1.O=C([O-])C(F)(F)F [Compound A153] | – | – | – | – | – | – | – | 40 | 90 | 20 | 60 | 20 | 40 | 20
Cc1cncc(-c2cc[n+](CCC(=O)O)nc2)n1.O=C([O-])C(F)(F)F [Compound A85] | 100 | 90 | 90 | 90 | 90 | 70 | 90 | – | – | – | – | – | – | –
O=C(O)CC[n+]1ccc(-c2ccc(C(F)(F)F)nn2)cn1.O=C([O-])C(F)(F)F [Compound A126] | 100 | 100 | 90 | 80 | 100 | 80 | 80 | – | – | – | – | – | – | –
COC(=O)CC[n+]1ccc(-c2cccnn2)cn1.O=C([O-])C(F)(F)F [Compound A139] | 90 | 80 | 100 | 100 | 100 | 100 | 100 | – | – | – | – | – | – | –
CC(C)OC(=O)CC[n+]1ccc(-c2ncccn2)cn1.O=C([O-])C(F)(F)F [Compound A81, isopropyl 3-(4-pyrimidin-2-ylpyridazin-1-ium-1-yl)propanoate 2,2,2-trifluoroacetate] | 100 | 100 | 80 | 90 | 90 | 90 | 100 | – | – | – | – | – | – | –
O=C(O)C(O)C[n+]1ccc(-c2ncccn2)cn1.O=C([O-])C(F)(F)F (stereo not drawn) [Compound A180] | – | – | – | – | – | – | – | 80 | 100 | 90 | 90 | 70 | 70 | 60
O=C(O)CC[n+]1ccc(-c2ncc(C(F)(F)F)cn2)cn1.O=C([O-])C(F)(F)F [Compound A129] | 70 | 70 | 40 | 50 | 60 | 90 | 60 | – | – | – | – | – | – | –
